From patent publication EP0588317A1 (priority 1992, dated 1994)
Where two headings read alike, the source gives them in different places.

Legend:
[1] = solubility in soybean oil; type: physicochemical
Source text: The oil phase component used for preparing fat emulsions (or lipid emulsions) may be any of those conventionally used for preparing fat emulsions (or lipid emulsions), including vegetable oils such as soybean oil, cottonseed oil, synthetic triglycerides such as Panasate 800, Panasate 810 (trade name; manufactured by Nippon Yushi), squalene, eicosapentaenoic acid, azone, and the like. For preparing fat emulsions (or lipid emulsions), high solubility in these oil components is required for substance to be fat-emulsified (or lipid-emulsified). The compound of the present invention has a high solubility in these oil components, for example, 300 mg/ml or more in soybean oil at 40°C. The fat emulsions (or lipid emulsions) can be prepared by dissolving the compound of the present invention in soybean oil, Panasate, etc., adding lecithin to the solution, crude-emulsifying the mixture with a homomixer, etc., and then fine-emulsifying with a nanomizer under high pressure.

colon 26 cells = assay: anti-tumor activity of fat emulsion given intravenously to mice inoculated with colon 26 cells; type: in vivo; conditions: fat emulsions, 14 days, dose per day 50 mg/kg
[2] = system: established cell line derived from mice; conditions: at the same molar concentration, in vitro, versus 5-fluorouracil; cited from earlier work
[3] = versus 5-fluorouracil; cited from earlier work

With `CCCCC/C=C\C/C=C\CCCCCCCC(=O)OCn1c(=O)c(F)cn([C@@H]2O[C@H](COC(=O)CCC)[C@@H](OC(=O)CCC)[C@H]2OC(=O)CCC)c1=O` [Example 19, 2',3',5'-O-tri-n-butyryl-3-linolyloxymethyl-5-fluorouridine] the “solubility of this compound in soybean oil” value [1] was greater than 300 mg/soybean oil 1 ml.
With `CCCCC/C=C\C/C=C\CCCCCCCC(=O)OCn1c(=O)c(F)cn([C@H]2C[C@H](OC(C)=O)[C@@H](COC(C)=O)O2)c1=O` [Example 3, 3',5'-O-diacetyl-3-linolyloxymethyl-2'-deoxy-5-fluorouridine] the solubility ([1]; soybean oil, 40 °C, oil or lipid; read-out: solubility of this compound in soybean oil) was greater than 300 mg/mL.
With `CCCCCCC(=O)OCn1c(=O)c(F)cn([C@H]2C[C@H](OC(=O)CCC)[C@@H](COC(=O)CCC)O2)c1=O` [Example 4] the solubility ([1]; 40 °C, oil or lipid; soybean oil; read-out: solubility of this compound in soybean oil) was greater than 300 mg/mL, the growth inhibiting activity (colon 26 cells; male mice inoculated with colon 26 cells in the inguinal region) was “more than 90%” and the body weight (colon 26 cells; male mice inoculated with colon 26 cells) was “without decrease of body weight”.
With `CCCCC/C=C\C/C=C\CCCCCCCC(=O)OCn1c(=O)c(F)cn([C@H]2C[C@H](OC(=O)Oc3ccccc3)[C@@H](COC(=O)Oc3ccccc3)O2)c1=O` [Example 15, 3',5'-O-diphenoxycarbonyl-3-linolyloxymethyl-2'-deoxy-5-fluorouridine] the “solubility of this compound in soybean” value [1] was 150 mg/0.5 ml.
For `CCCCCCC(=O)OCn1c(=O)c(F)cn([C@@H]2O[C@H](COC(=O)CCC)[C@@H](OC(=O)CCC)[C@H]2OC(=O)CCC)c1=O` [Example 20, 2',3',5'-O-tri-n-butyryl-3-n-heptanoyloxymethyl-5-fluorouridine], the “solubility of this compound in soybean oil” value [1] was greater than 300 mg/soybean oil 1 ml.
With `CCCCC/C=C\C/C=C\CCCCCCCC(=O)OCn1c(=O)c(F)cn([C@H]2C[C@H](OC(=O)Oc3ccc(OC)cc3)[C@@H](COC(=O)Oc3ccc(OC)cc3)O2)c1=O` [Example 16, 3',5'-O-di(4-methoxyphenoxy-carbonyl)-3-linolyloxymethyl-2'-deoxy-5-fluorouridine] the “solubility of this compound in soybean” value [1] was 150 mg/0.5 ml.
For `O=c1[nH]c(=O)n([C@H]2C[C@H](O)[C@@H](CO)O2)cc1F` [FdUrd, 2'-Deoxy-5-fluorouridine], the “cancer inhibitory activity relative to 5-fluorouracil” value [2] is given as “more than 100 times” and the “in vivo advantage over 5-fluorouracil” value [3] is given as “no advantage over 5-fluorouracil”.
